Data from patent US5892063A (Hauser, Inc., priority 1997, dated 1999).
Like-named read-outs stand apart in the source and are kept apart here.

Columns and labels:
[1] = tested on: MCF7/ADR-RES; experiment: SRB growth screen, breast cancer MCF7/ADR-RES; conditions: Homo sapiens, 48 h; for CC50: read-out: Log10 LC50 (converted); for IC (TGI): read-out: Log10 TGI
[2] = tested on: PC-3; experiment: SRB growth screen, prostate cancer PC-3; conditions: Homo sapiens, PC-3, 48 h; for CC50: read-out: Log10 LC50 (converted); for IC (TGI): read-out: Log10 TGI
[3] = tested on: SNB-75; experiment: SRB growth screen, CNS cancer SNB-75; conditions: Homo sapiens, SNB-75, 48 h
[4] = SRB growth screen, whole cell line panel; type: cell-based; conditions: for CC50: Homo sapiens, read-out: Log10 LC50, Mean (converted); for GI50: read-out: Log10 GI50, Mean (converted); for IC (TGI): read-out: Log10 TGI, Mean (converted)
Procedure: The screening assay is performed on 96-well microtitre plates. […] Duplicate wells are prepared for all concentrations; "time-zero" and "nodrug" controls are also provided for each test. […] One hundred microliters of SRB solution (0.4% w/v in 1% acetic acid) is added to each microtitre well and incubated for 10 minutes at room temperature.
The response parameters GI50 and LC50 are interpolated values representing the concentrations at which the percentage growth (PG) is +50 and -50 respectively:
GI50 is the concentration for which the PG=+50.
TGI is the concentration for which PG=0.
LC50 is the concentration for which the PG=-50. […] This is interpreted as cytotoxicity.
The data represented in Table I is graphically represented in FIGS. 1a and 1b through FIGS. 9a and 9b. […] The following is an example of how the information in Table I and in the Figures is interpreted.

[5] = tested on: 786-0; experiment: SRB growth screen, renal cancer 786-0; conditions: Homo sapiens, 786-0, 48 h; for CC50: read-out: Log10 LC50 (converted); for IC (TGI): read-out: Log10 TGI
[6] = tested on: SR; experiment: SRB growth screen, leukemia SR; conditions: Homo sapiens, 48 h; for CC50: read-out: Log10 LC50 (converted)
[7] = tested on: MDA-N; experiment: SRB growth screen, breast cancer MDA-N; conditions: Homo sapiens, 48 h; for GI50: read-out: Log10 GI50 (converted)
[8] = tested on: HL-60(TB); experiment: SRB growth screen, leukemia HL-60(TB); conditions: Homo sapiens, HL-60, 48 h; for CC50: read-out: Log10 LC50 (converted); for IC (TGI): read-out: Log10 TGI
[9] = tested on: SW-620; experiment: SRB growth screen, colon cancer SW-620; conditions: Homo sapiens, SW-620, 48 h; for CC50: read-out: Log10 LC50 (converted); for IC (TGI): read-out: Log10 TGI
[10] = tested on: MCF7; experiment: SRB growth screen, breast cancer MCF7; conditions: Homo sapiens, MCF7, 48 h; for CC50: read-out: Log10 LC50 (converted)
[11] = tested on: SN12C; experiment: SRB growth screen, renal cancer SN12C; conditions: Homo sapiens, 48 h; for CC50: read-out: Log10 LC50 (converted); for IC (TGI): read-out: Log10 TGI
[12] = tested on: M14; experiment: SRB growth screen, melanoma M14; conditions: Homo sapiens, M14, 48 h; for CC50: read-out: Log10 LC50 (converted)
[13] = tested on: RPMI-8226; experiment: SRB growth screen, leukemia RPMI-8226; conditions: Homo sapiens, RPMI-8226, 48 h; for CC50: read-out: Log10 LC50 (converted)
[14] = tested on: OVCAR-5; experiment: SRB growth screen, ovarian cancer OVCAR-5; conditions: Homo sapiens, OVCAR-5, 48 h; for CC50: read-out: Log10 LC50 (converted); for IC (TGI): read-out: Log10 TGI
[15] = tested on: MALME-3M; experiment: SRB growth screen, melanoma MALME-3M; conditions: Homo sapiens, 48 h; for CC50: read-out: Log10 LC50 (converted); for IC (TGI): read-out: Log10 TGI
[16] = tested on: U251; experiment: SRB growth screen, CNS cancer U251; conditions: Homo sapiens, U-251, 48 h; for CC50: read-out: Log10 LC50 (converted)
[17] = tested on: MOLT-4; experiment: SRB growth screen, leukemia MOLT-4; conditions: Homo sapiens, MOLT-4, 48 h; for CC50: read-out: Log10 LC50 (converted); for IC (TGI): read-out: Log10 TGI
[18] = tested on: OVCAR-8; experiment: SRB growth screen, ovarian cancer OVCAR-8; conditions: Homo sapiens, OVCAR-8, 48 h; for CC50: read-out: Log10 LC50 (converted)
[19] = tested on: RXF-393; experiment: SRB growth screen, renal cancer RXF-393; conditions: Homo sapiens, RXF 393, 48 h; for CC50: read-out: Log10 LC50 (converted); for IC (TGI): read-out: Log10 TGI
[20] = tested on: SK-MEL-2; experiment: SRB growth screen, melanoma SK-MEL-2; conditions: Homo sapiens, SK-MEL-2, 48 h; for CC50: read-out: Log10 LC50 (converted)
[21] = tested on: SNB-19; experiment: SRB growth screen, CNS cancer SNB-19; conditions: Homo sapiens, SNB-19, 48 h; for CC50: read-out: Log10 LC50 (converted); for IC (TGI): read-out: Log10 TGI
[22] = tested on: MDA-MB-435; experiment: SRB growth screen, breast cancer MDA-MB-435; type: cell-based
[23] = tested on: UACC-62; experiment: SRB growth screen, melanoma UACC-62; conditions: Homo sapiens, UACC-62, 48 h; for CC50: read-out: Log10 LC50 (converted)
[24] = tested on: microtubule; conditions: cited from earlier work
[25] = read-out: Log10 GI50 (converted)
[26] = read-out: Log10 LC50 (converted)

`CC(=O)O[C@H]1C(=O)[C@@]2(C)[C@H]([C@H](OC(=O)c3ccccc3)[C@]3(O)C[C@H](OC(=O)[C@H](O)[C@@H](NC(=O)C4(C)OC4C)c4ccccc4)C(C)=C1C3(C)C)[C@]1(OC(C)=O)CO[C@@H]1C[C@@H]2O` (stereo partly drawn) [Ceph-epoxide, cephalomannine epoxide] gave a GI50 [1, 25] of 13.8 µM, a CC50 [1] greater than 100 µM and an IC (TGI) [1] of 61.7 µM. It also gave a GI50 [2, 25] of 0.0112 µM, a CC50 [2] greater than 100 µM and an IC (TGI) [2] greater than 100 µM. It also gave a GI50 [3, 25] of less than 0.01 µM, a CC50 [3, 26] greater than 100 µM and a CC50 [4] of 64.6 µM. The GI50 ([4]; mean over cell lines) was 28.8 nM, the IC (TGI) ([4]; mean over cell lines) was 5.75 µM and the CC50 [5] was greater than 100 µM. The IC (TGI) [5] was greater than 100 µM, the GI50 [6, 25] was less than 0.01 µM and the CC50 [6] was greater than 100 µM. It also gave a GI50 [7] of less than 10 nM, a CC50 [7, 26] of less than 0.01 µM and an IC (TGI) ([7]; read-out: Log10 TGI) of less than 0.01 µM. For the same compound, the GI50 [8, 25] was less than 0.01 µM, the CC50 [8] was greater than 100 µM and the IC (TGI) [8] was less than 0.01 µM. It also gave a CC50 [9] greater than 100 µM, an IC (TGI) [9] greater than 100 µM and a GI50 [10, 25] of less than 0.01 µM. It also gave a CC50 [10] greater than 100 µM, an IC (TGI) ([10]; read-out: Log10 TGI) greater than 100 µM and a GI50 [11, 25] of less than 0.01 µM. The CC50 [11] was greater than 100 µM, the IC (TGI) [11] was greater than 100 µM and the GI50 [12, 25] was less than 0.01 µM. For the same compound, the CC50 [12] was greater than 100 µM, the CC50 [13] was greater than 100 µM and the GI50 [14, 25] was 0.0275 µM. It also gave a CC50 [14] greater than 100 µM, an IC (TGI) [14] of 4.79 µM and a CC50 [15] greater than 100 µM. For the same compound, the IC (TGI) [15] was greater than 100 µM, the GI50 [16, 25] was less than 0.01 µM and the CC50 [16] was greater than 100 µM. The GI50 [17, 25] was less than 0.01 µM, the CC50 [17] was greater than 100 µM and the IC (TGI) [17] was greater than 100 µM. For the same compound, the CC50 [18] was greater than 100 µM, the IC (TGI) ([18]; read-out: Log10 TGI) was greater than 100 µM and the GI50 [19, 25] was 0.214 µM. For the same compound, the CC50 [19] was greater than 100 µM, the IC (TGI) [19] was greater than 100 µM and the GI50 [20, 25] was less than 0.01 µM. The CC50 [20] was greater than 100 µM, the GI50 [21, 25] was 0.0257 µM and the CC50 [21] was greater than 100 µM. The IC (TGI) [21] was greater than 100 µM, the GI50 ([22]; Homo sapiens, MDA-MB-435, 48 h; read-out: Log10 GI50 (converted)) was less than 10 nM and the IC (TGI) ([22]; Homo sapiens, MDA-MB-435, 48 h; read-out: Log10 TGI) was less than 0.01 µM. It also gave a GI50 [23, 25] of less than 0.01 µM, a CC50 [23] greater than 100 µM and an IC (TGI) ([23]; read-out: Log10 TGI) greater than 100 µM.

With `CC(=O)O[C@H]1C(=O)[C@@]2(C)[C@H]([C@H](OC(=O)c3ccccc3)[C@]3(O)C[C@H](OC(=O)[C@H](O)[C@@H](NC(=O)c4ccccc4)c4ccccc4)C(C)=C1C3(C)C)[C@]1(OC(C)=O)CO[C@@H]1C[C@@H]2O` [Paclitaxel, paclitaxel, reference compound] the CC50 [1] was greater than 100 µM, the IC (TGI) [1] was greater than 100 µM and the CC50 [2] was greater than 100 µM. The IC (TGI) [2] was greater than 100 µM, the CC50 ([4]; mean over cell lines) was 87.1 µM and the GI50 ([4]; mean over cell lines) was 0.0708 nM. The IC (TGI) ([4]; mean over cell lines) was 28.8 µM, the CC50 [5] was greater than 100 µM and the IC (TGI) [5] was greater than 100 µM. For the same compound, the CC50 [6] was greater than 100 µM, the IC (TGI) ([6]; read-out: Log10 TGI) was greater than 100 µM and the GI50 [7] was less than 0.0001 nM. For the same compound, the effect on microtubules [24] was “stabilizes microtubules and inhibits depolymerization back to tubulin”, the CC50 [8] was greater than 100 µM and the IC (TGI) [8] was greater than 29.5 µM. For the same compound, the CC50 [9] was greater than 100 µM, the IC (TGI) [9] was greater than 100 µM and the CC50 [10] was greater than 100 µM. For the same compound, the CC50 [11] was greater than 100 µM, the IC (TGI) [11] was 91.2 µM and the CC50 [12] was 74.1 µM. For the same compound, the IC (TGI) ([12]; read-out: Log10 TGI) was 24 µM, the GI50 [13, 25] was less than 0.1 pM and the CC50 [13] was greater than 100 µM. It also gave an IC (TGI) ([13]; read-out: Log10 TGI) greater than 100 µM, a CC50 [14] greater than 100 µM and an IC (TGI) [14] of 12 µM. For the same compound, the CC50 [15] was 77.6 µM, the IC (TGI) [15] was 34.7 µM and the CC50 [16] was 70.8 µM. For the same compound, the IC (TGI) ([16]; read-out: Log10 TGI) was 47.9 µM, the CC50 [17] was greater than 100 µM and the IC (TGI) [17] was greater than 100 µM. For the same compound, the GI50 [18, 25] was 17.8 pM, the CC50 [18] was greater than 100 µM and the CC50 [19] was 35.5 µM. The IC (TGI) [19] was 12.6 µM, the CC50 [20] was greater than 100 µM and the CC50 [21] was greater than 100 µM. The IC (TGI) [21] was greater than 100 µM, the GI50 ([22]; Homo sapiens, MDA-MB-435, 48 h, read-out: Log10 GI50 (converted)) was less than 0.0001 nM and the CC50 [23] was 64.6 µM.
